Assay results as given in article PMC8632988, “Inhibition of SYK and cSrc kinases can protect bone and cartilage in preclinical models of osteoarthritis and rheumatoid arthritis” (Scientific Reports, 2021).
pIC50: −log10 of the molar value. Where “and” joins values, the source holds several entries; their conditions need not be identical. Equal entries are not always repeated. Where two headings read alike, the source gives them in different places.

Assays:
Experiment in all cases: Kinase selectivity profile assay
Format in all cases: biochemical
ABL1 = molecular target: T1, ABL1 (Homo sapiens, UniProt P00519); details: 500 nM, relative to DMSO; for remaining activity at 0.5 µM: read-out: Residual enzymatic activity
T1 construct: purchased Reaction Biology Corporation
Method in brief: (§1)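 Radiometric kinase assay run by a standard protocol. Unbound phosphate was removed by washing filters in phosphoric acid, and product radioactivity gave percent remaining kinase activity versus DMSO vehicle reactions. Run in duplicate.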

ALK2/ACVR1 = molecular target: T2, ALK2/ACVR1 (Homo sapiens, UniProt Q04771); details: 500 nM; relative to DMSO; read-out: Residual enzymatic activity
T2 construct: purchased Reaction Biology Corporation
Method in brief: as §1

ALK3/BMPR1A = molecular target: T3, ALK3/BMPR1A (Homo sapiens, UniProt P36894); details: 500 nM; relative to DMSO; read-out: Residual enzymatic activity
T3 construct: purchased Reaction Biology Corporation
Method in brief: as §1

BMPR2 = molecular target: T4, BMPR2 (Homo sapiens, UniProt Q13873); details: 500 nM; relative to DMSO; read-out: Residual enzymatic activity
T4 construct: purchased Reaction Biology Corporation
Method in brief: as §1

BRSK1 = molecular target: T5, BRSK1 (Homo sapiens, UniProt Q8TDC3); details: 500 nM; relative to DMSO; read-out: Residual enzymatic activity
T5 construct: purchased Reaction Biology Corporation
Method in brief: as §1

CAMK2d = molecular target: T6, CAMK2d (Homo sapiens, UniProt Q13557); details: read-out: Residual enzymatic activity
T6 construct: purchased Reaction Biology Corporation
Method in brief: as §1

CDK2/cyclin A = molecular target: T7, CDK2/cyclin A (Homo sapiens, UniProt P24941); details: 500 nM; relative to DMSO; read-out: Residual enzymatic activity
T7 construct: purchased Reaction Biology Corporation
Method in brief: as §1

CK1g3 = molecular target: T8, CK1g3 (Homo sapiens, UniProt Q9Y6M4); details: 500 nM; relative to DMSO; read-out: Residual enzymatic activity
T8 construct: purchased Reaction Biology Corporation
Method in brief: as §1

CK2a = molecular target: T9, CK2a (Homo sapiens, UniProt P68400); details: 500 nM; relative to DMSO; read-out: Residual enzymatic activity
T9 construct: purchased Reaction Biology Corporation
Method in brief: as §1

CSK = molecular target: T10, CSK (Homo sapiens, UniProt P41240); details: for remaining activity at 0.5 µM: 500 nM, relative to DMSO, read-out: Residual enzymatic activity
T10 construct: purchased Reaction Biology Corporation (assay service)
Method in brief: as §1

EPHB1 = molecular target: T11, EPHB1 (Homo sapiens, UniProt P54762); details: for remaining activity at 0.5 µM: 500 nM, relative to DMSO, read-out: Residual enzymatic activity
T11 construct: purchased Reaction Biology Corporation (assay service)
T11 sequence (P54762 18-984): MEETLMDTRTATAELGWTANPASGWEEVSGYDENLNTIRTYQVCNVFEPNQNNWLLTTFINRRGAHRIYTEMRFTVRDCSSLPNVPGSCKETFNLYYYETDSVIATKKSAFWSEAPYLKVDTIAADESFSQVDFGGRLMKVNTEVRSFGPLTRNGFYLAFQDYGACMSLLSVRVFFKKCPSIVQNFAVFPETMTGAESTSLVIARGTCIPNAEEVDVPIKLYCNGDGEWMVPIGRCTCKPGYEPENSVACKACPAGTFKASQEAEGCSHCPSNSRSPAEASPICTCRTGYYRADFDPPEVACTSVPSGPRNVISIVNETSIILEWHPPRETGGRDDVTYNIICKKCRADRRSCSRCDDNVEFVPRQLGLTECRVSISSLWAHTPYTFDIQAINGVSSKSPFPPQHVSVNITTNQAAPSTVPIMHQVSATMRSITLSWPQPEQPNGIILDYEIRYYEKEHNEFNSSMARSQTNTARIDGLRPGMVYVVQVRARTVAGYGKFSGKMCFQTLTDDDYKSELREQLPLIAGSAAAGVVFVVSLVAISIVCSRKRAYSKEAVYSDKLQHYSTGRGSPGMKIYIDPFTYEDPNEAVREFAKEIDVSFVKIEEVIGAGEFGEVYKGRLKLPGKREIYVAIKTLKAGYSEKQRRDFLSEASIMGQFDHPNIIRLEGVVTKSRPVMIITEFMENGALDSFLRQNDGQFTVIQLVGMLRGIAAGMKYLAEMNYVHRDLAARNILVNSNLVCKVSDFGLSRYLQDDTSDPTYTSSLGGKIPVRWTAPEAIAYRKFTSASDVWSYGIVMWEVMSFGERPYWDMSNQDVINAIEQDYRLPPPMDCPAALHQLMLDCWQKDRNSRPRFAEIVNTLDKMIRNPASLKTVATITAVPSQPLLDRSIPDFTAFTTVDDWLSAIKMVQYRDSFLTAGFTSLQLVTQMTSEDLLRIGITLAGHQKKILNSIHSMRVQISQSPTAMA
Method in brief: as §1

ERBB4/HER4 = molecular target: T12, ERBB4/HER4 (Homo sapiens, UniProt Q15303); details: 500 nM; relative to DMSO; read-out: Residual enzymatic activity
T12 construct: purchased Reaction Biology Corporation
Method in brief: as §1

FGFR3 = molecular target: T13, FGFR3 (Homo sapiens, UniProt P22607); details: 500 nM, relative to DMSO; for remaining activity at 0.5 µM: read-out: Residual enzymatic activity
T13 construct: purchased Reaction Biology Corporation
Method in brief: as §1

GRK7 = molecular target: T14, GRK7 (Homo sapiens, UniProt Q8WTQ7); details: 500 nM; relative to DMSO; read-out: Residual enzymatic activity
T14 construct: purchased Reaction Biology Corporation
Method in brief: as §1

HGK/MAP4K4 = molecular target: T15, HGK/MAP4K4 (Homo sapiens, UniProt O95819); details: 500 nM; relative to DMSO; read-out: Residual enzymatic activity
T15 construct: purchased Reaction Biology Corporation
Method in brief: as §1

IRAK4 = molecular target: T16, IRAK4 (Homo sapiens, UniProt Q9NWZ3); details: 500 nM; relative to DMSO; read-out: Residual enzymatic activity
T16 construct: purchased Reaction Biology Corporation
Method in brief: as §1

KHS/MAP4K5 = molecular target: T17, KHS/MAP4K5 (Homo sapiens, UniProt Q9Y4K4); details: 500 nM; relative to DMSO; read-out: Residual enzymatic activity
T17 construct: purchased Reaction Biology Corporation
Method in brief: as §1

LIMK1 = molecular target: T18, LIMK1 (Homo sapiens, UniProt P53667); details: for remaining activity at 0.5 µM: 500 nM, relative to DMSO, read-out: Residual enzymatic activity
T18 construct: purchased Reaction Biology Corporation (assay service)
Method in brief: as §1

MAPKAPK3 = molecular target: T19, MAPKAPK3 (Homo sapiens, UniProt Q16644); details: 500 nM; relative to DMSO; read-out: Residual enzymatic activity
T19 construct: purchased Reaction Biology Corporation
Method in brief: as §1

MEK3 = molecular target: T20, MEK3 (Homo sapiens, UniProt P46734); details: 500 nM; relative to DMSO; read-out: Residual enzymatic activity
T20 construct: purchased Reaction Biology Corporation
Method in brief: as §1

P38a/MAPK14 = molecular target: T21, P38a/MAPK14 (Homo sapiens, UniProt Q16539); details: 500 nM; relative to DMSO; read-out: Residual enzymatic activity
T21 construct: purchased Reaction Biology Corporation
Method in brief: as §1

PAK5 = molecular target: T22, PAK5 (Homo sapiens, UniProt Q9P286); details: 500 nM; relative to DMSO; read-out: Residual enzymatic activity
T22 construct: purchased Reaction Biology Corporation
Method in brief: as §1

PKCzeta = molecular target: T23, PKCzeta (Homo sapiens, UniProt Q05513); details: read-out: Residual enzymatic activity
T23 construct: purchased Reaction Biology Corporation
Method in brief: as §1

PRKX = molecular target: T24, PRKX (Homo sapiens, UniProt P51817); details: 500 nM; relative to DMSO; read-out: Residual enzymatic activity
T24 construct: purchased Reaction Biology Corporation
Method in brief: as §1

RIPK2 = molecular target: T25, RIPK2 (Homo sapiens, UniProt O43353); details: 500 nM; relative to DMSO; read-out: Residual enzymatic activity
T25 construct: purchased Reaction Biology Corporation
Method in brief: as §1

TAOK2/TAO1 = molecular target: T26, TAOK2/TAO1 (Homo sapiens, UniProt Q9UL54); details: 500 nM; relative to DMSO; read-out: Residual enzymatic activity
T26 construct: purchased Reaction Biology Corporation
Method in brief: as §1

p70S6Kb/RPS6KB2 = molecular target: T27, p70S6Kb/RPS6KB2 (Homo sapiens, UniProt Q9UBS0); details: 500 nM; relative to DMSO; read-out: Residual enzymatic activity
T27 construct: purchased Reaction Biology Corporation
Method in brief: as §1

[1] = 10-dose mode, threefold serial dilution from 10 μM

T1 sequence (P00519 whole entry): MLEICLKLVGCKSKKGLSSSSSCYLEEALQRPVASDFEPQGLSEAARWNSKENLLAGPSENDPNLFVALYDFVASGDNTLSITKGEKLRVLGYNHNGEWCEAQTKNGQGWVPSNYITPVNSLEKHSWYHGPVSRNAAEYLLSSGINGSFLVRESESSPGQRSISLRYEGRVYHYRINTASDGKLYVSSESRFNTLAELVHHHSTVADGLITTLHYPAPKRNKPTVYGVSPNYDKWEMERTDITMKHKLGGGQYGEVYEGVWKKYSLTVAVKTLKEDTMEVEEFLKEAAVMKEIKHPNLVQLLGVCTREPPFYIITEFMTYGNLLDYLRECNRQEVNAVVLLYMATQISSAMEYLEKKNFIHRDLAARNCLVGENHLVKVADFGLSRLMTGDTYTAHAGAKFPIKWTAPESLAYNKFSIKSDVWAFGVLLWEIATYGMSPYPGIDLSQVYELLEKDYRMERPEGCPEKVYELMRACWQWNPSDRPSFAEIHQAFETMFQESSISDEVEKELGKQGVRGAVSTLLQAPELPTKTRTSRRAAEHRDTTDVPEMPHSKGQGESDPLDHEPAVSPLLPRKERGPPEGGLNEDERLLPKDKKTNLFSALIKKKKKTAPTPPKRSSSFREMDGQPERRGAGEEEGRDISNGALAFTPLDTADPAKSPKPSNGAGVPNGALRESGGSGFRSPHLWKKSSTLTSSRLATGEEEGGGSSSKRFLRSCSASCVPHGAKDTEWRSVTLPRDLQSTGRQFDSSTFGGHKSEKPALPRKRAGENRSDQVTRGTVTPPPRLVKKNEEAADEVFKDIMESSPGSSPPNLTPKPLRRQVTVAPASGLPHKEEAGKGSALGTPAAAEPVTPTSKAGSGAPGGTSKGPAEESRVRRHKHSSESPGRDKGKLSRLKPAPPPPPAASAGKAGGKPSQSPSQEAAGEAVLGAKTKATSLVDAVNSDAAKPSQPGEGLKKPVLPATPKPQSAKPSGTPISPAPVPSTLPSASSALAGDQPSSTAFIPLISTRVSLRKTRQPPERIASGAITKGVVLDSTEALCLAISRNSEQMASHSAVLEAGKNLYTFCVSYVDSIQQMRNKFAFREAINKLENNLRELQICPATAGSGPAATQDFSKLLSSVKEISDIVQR
T18 sequence (P53667 whole entry): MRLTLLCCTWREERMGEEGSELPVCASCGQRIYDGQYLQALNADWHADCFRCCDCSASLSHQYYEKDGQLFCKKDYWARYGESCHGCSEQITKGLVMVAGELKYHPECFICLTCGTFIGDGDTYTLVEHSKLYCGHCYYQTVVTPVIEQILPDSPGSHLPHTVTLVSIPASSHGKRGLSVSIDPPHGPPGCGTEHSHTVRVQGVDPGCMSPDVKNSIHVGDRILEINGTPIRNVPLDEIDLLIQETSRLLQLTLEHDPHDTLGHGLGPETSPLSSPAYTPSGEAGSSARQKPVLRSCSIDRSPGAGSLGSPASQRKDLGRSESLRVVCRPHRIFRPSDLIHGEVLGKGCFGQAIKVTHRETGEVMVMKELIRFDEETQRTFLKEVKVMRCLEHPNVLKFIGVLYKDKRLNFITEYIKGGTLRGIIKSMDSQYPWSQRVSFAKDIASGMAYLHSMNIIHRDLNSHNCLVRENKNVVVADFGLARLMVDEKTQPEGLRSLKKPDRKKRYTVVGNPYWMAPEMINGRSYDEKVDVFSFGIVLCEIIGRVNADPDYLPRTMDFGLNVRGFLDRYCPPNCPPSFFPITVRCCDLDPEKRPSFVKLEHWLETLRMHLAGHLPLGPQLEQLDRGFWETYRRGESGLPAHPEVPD
T10 sequence (P41240 whole entry): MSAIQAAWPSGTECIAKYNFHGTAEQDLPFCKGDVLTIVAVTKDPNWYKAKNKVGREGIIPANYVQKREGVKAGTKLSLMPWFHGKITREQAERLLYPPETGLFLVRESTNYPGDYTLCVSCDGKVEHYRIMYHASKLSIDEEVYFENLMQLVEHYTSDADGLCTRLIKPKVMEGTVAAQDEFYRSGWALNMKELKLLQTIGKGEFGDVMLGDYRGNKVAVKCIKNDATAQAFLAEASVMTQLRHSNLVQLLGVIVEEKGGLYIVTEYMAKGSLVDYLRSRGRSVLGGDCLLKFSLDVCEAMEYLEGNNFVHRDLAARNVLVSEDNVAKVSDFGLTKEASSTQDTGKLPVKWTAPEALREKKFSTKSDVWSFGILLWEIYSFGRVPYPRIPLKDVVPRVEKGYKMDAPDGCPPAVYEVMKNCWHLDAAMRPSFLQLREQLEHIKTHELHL
T13 sequence (P22607 23-806): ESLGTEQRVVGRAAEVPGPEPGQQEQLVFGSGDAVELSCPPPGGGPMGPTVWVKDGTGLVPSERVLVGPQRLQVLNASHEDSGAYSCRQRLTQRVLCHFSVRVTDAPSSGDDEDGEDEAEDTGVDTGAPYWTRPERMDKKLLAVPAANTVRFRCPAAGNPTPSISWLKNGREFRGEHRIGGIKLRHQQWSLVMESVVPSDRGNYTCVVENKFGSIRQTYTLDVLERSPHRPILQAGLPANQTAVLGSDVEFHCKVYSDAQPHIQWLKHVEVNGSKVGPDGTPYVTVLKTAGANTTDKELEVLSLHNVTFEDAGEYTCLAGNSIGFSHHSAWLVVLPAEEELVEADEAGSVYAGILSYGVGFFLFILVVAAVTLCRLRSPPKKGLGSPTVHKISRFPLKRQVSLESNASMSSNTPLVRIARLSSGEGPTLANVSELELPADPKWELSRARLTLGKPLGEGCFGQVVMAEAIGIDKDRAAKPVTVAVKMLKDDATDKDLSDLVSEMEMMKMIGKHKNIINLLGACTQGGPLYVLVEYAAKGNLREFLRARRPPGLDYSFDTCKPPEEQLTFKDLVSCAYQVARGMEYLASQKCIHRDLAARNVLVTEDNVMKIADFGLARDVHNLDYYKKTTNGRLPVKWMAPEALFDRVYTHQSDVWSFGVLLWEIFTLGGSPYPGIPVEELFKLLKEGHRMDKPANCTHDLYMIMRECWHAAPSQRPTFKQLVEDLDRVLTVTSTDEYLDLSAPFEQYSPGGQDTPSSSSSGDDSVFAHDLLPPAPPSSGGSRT
T3 sequence (P36894 24-532): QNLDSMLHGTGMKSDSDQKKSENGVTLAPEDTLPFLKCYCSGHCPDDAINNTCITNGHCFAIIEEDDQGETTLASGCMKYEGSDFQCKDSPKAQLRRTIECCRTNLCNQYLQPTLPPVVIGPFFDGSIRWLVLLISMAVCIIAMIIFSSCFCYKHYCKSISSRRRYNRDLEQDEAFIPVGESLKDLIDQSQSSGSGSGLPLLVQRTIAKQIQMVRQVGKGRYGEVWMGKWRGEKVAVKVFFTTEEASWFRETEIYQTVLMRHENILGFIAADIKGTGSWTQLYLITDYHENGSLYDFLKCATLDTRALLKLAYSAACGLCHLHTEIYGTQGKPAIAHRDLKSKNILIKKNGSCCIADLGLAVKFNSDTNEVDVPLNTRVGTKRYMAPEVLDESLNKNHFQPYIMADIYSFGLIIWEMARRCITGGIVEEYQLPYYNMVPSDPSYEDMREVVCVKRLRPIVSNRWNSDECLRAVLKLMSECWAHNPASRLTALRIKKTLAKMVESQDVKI
T27 sequence (Q9UBS0 whole entry): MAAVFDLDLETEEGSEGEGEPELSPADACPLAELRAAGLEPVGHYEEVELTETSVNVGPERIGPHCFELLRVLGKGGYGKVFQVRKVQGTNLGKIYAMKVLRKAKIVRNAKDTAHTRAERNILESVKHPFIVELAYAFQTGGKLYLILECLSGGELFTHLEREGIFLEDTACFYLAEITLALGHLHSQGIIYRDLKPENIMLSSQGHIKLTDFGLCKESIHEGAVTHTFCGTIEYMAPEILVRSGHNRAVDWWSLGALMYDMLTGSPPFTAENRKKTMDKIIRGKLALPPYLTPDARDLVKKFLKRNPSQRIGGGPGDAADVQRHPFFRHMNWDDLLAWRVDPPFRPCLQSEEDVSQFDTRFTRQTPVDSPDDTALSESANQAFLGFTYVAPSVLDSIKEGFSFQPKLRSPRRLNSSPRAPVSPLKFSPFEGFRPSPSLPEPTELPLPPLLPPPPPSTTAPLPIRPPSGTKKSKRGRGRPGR
T24 sequence (P51817 whole entry): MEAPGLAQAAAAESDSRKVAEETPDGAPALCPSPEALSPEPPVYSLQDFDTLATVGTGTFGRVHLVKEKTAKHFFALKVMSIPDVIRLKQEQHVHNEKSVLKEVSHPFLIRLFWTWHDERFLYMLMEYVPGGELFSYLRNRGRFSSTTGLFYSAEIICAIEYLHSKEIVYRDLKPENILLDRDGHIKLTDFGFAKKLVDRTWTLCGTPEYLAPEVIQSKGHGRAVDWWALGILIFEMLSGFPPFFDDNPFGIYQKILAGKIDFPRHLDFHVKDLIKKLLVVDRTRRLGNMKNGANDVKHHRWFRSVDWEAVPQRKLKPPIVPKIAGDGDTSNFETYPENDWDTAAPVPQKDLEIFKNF
T8 sequence (Q9Y6M4 whole entry): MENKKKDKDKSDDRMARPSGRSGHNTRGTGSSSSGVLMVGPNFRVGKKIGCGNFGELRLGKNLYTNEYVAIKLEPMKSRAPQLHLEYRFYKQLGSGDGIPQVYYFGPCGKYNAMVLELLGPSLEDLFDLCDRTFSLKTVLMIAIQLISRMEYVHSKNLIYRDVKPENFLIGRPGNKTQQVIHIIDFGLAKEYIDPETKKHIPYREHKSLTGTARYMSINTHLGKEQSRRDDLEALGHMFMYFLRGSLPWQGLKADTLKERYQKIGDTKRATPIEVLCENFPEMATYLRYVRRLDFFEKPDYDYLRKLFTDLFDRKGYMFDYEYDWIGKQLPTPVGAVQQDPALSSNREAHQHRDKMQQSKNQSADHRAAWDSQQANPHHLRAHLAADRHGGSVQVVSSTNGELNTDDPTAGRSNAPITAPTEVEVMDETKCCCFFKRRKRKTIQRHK

Compound	remaining activity at 0.5 µM (ABL1) [%]	remaining activity at 0.5 µM (ALK2/ACVR1) [%]	remaining activity at 0.5 µM (ALK3/BMPR1A) [%]	remaining activity at 0.5 µM (BMPR2) [%]	remaining activity at 0.5 µM (BRSK1) [%]	remaining activity at 0.5 µM (CDK2/cyclin A) [%]	remaining activity at 0.5 µM (CK1g3) [%]	remaining activity at 0.5 µM (CK2a) [%]	remaining activity at 0.5 µM (CSK) [%]	remaining activity at 0.5 µM (EPHB1) [%]	remaining activity at 0.5 µM (ERBB4/HER4) [%]	remaining activity at 0.5 µM (FGFR3) [%]	remaining activity at 0.5 µM (GRK7) [%]	remaining activity at 0.5 µM (HGK/MAP4K4) [%]	remaining activity at 0.5 µM (IRAK4) [%]	remaining activity at 0.5 µM (KHS/MAP4K5) [%]	remaining activity at 0.5 µM (LIMK1) [%]	remaining activity at 0.5 µM (MAPKAPK3) [%]	remaining activity at 0.5 µM (MEK3) [%]	remaining activity at 0.5 µM (P38a/MAPK14) [%]	further results
COc1cc(Nc2ncnc(Nc3cc4c(cn3)NC(=O)C(C)(C)O4)n2)cc(OC)c1OC [MT-SYK-03]	> 54	241	130	90	92.6	83.1	72.2	94.3	34.8	9.6	79.4	> 54	99.7	78.4	103	91.8	11.4	102	119	110	Residual enzymatic activity (ABL1): 68.0%; remaining activity at 0.5 µM (CAMK2d): 104%; pIC50 (CSK; [1]): 6.62; pIC50 (EPHB1; [1]): 7.60 and 7.61; Residual enzymatic activity (FGFR3): 57.2%; pIC50 (LIMK1; [1]): 7.35; remaining activity at 0.5 µM (PAK5): 98.5%; remaining activity at 0.5 µM (PKCzeta; 500 nM, relative to DMSO): 109%; remaining activity at 0.5 µM (PRKX): 115%; remaining activity at 0.5 µM (RIPK2): 84.7%; remaining activity at 0.5 µM (TAOK2/TAO1): 105%; remaining activity at 0.5 µM (p70S6Kb/RPS6KB2): 91.4%
COc1cc(Nc2ncc(F)c(Nc3ccc4c(n3)NC(=O)C(C)(C)O4)n2)cc(OC)c1OC [R406, reference compound]	68.6	135	120	71.1	61.6	47.6	79.6	50.8	20.6	-4	68.2	17.4	89.6	75.3	41.9	87.1	7.2	102	131	99.9	remaining activity at 0.5 µM (CAMK2d; 500 nM, relative to DMSO): 98.9%; remaining activity at 0.5 µM (PAK5): 49%; remaining activity at 0.5 µM (PKCzeta): 105%; remaining activity at 0.5 µM (PRKX): 104%; remaining activity at 0.5 µM (RIPK2): 73%; remaining activity at 0.5 µM (TAOK2/TAO1): 47.4%; remaining activity at 0.5 µM (p70S6Kb/RPS6KB2): 74.6%
